{
  "source": "ChEMBL document CHEMBL1201862",
  "about": "“PubChem BioAssay data set” (2004)",
  "key": {"[1]": {"target": "Glyceraldehyde-3-phosphate dehydrogenase (Homo sapiens, UniProt P04406)", "sequence (P04406 whole entry)": "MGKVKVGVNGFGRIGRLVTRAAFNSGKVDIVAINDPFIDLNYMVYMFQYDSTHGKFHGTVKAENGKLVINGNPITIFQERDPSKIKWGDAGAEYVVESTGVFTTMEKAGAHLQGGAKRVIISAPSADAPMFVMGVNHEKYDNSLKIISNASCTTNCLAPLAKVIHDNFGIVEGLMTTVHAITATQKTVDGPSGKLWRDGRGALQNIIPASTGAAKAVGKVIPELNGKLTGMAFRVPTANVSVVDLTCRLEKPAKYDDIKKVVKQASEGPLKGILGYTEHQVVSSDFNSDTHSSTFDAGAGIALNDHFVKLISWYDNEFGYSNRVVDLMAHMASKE"}, "[2]": {"target": "T1, Alkaline phosphatase, tissue-nonspecific isozyme (Homo sapiens, UniProt P05186)", "T1 sequence (P05186 whole entry)": "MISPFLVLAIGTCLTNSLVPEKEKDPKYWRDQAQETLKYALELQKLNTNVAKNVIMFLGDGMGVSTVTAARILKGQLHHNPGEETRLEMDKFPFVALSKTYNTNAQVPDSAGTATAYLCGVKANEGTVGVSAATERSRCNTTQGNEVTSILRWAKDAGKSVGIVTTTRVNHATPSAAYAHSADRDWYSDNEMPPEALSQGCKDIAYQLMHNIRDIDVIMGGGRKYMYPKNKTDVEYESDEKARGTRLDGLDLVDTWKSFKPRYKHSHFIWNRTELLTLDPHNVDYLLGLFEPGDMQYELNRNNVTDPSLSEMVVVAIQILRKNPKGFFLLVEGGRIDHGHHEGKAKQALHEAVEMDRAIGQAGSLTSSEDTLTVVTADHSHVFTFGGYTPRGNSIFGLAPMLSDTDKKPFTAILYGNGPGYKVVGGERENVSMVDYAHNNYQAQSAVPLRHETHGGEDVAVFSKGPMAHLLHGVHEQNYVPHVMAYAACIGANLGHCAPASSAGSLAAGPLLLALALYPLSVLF", "assay": "potency against alkaline phosphatase TNAP – biochemical, luminescent, dose response, SAR follow-up (AID 1056)"}, "[3]": {"target": "Alkaline phosphatase, placental type (Homo sapiens, UniProt P05187)", "sequence (P05187 whole entry)": "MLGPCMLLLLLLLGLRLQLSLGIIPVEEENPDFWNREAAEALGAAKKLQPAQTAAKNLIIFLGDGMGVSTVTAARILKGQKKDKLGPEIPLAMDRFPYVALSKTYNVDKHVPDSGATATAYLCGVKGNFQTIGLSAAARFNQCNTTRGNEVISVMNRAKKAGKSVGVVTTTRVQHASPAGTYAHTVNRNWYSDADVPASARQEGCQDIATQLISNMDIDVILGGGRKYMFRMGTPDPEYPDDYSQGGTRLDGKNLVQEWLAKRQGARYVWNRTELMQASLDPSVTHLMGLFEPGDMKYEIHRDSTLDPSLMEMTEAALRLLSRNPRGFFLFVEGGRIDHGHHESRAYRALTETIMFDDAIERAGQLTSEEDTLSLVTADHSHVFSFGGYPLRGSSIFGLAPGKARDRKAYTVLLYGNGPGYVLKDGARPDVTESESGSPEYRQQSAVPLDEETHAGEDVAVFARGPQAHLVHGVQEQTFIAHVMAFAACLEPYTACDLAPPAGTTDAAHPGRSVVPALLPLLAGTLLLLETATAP", "assay": "human placental alkaline phosphatase inhibition – biochemical, luminescence, confirmation (AID 1512)", "assay_type": "functional"}, "Phosphomannomutase 2": {"target": "T2, Phosphomannomutase 2 (Homo sapiens, UniProt O15305)", "T2 sequence (O15305 whole entry)": "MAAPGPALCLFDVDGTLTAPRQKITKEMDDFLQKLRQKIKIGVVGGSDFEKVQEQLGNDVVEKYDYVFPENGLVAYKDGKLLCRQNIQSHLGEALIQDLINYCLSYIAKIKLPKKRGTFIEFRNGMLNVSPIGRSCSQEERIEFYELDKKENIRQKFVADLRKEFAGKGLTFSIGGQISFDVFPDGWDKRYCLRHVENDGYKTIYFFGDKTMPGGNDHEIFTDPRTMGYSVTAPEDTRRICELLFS", "assay": "Counter screen SAR assay for PMM2 inhibitors via a fluorescence intensity assay. [Related pubchem assays (depositor defined):AID1545, AID1574]"}, "[4]": {"target": "Glucose-6-phosphate 1-dehydrogenase (Homo sapiens, UniProt P11413)", "sequence (P11413 whole entry)": "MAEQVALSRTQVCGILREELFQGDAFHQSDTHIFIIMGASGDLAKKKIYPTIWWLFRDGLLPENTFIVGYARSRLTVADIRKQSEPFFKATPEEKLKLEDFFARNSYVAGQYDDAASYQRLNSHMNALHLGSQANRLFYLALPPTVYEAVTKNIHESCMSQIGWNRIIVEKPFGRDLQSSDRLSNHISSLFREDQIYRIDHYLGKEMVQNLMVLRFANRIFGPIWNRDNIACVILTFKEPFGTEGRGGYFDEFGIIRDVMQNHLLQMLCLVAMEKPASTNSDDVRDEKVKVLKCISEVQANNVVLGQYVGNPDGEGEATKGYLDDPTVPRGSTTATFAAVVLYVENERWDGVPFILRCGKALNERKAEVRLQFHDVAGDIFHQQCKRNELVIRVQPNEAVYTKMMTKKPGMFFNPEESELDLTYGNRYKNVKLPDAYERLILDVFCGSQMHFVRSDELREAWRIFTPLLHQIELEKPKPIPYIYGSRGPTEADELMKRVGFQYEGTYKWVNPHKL", "assay": "inhibition of Homo sapiens G6PD, dose series – biochemical, fluorescence, selectivity assay for P. falciparum G6PD inhibitor project, dose response (AID 504792)", "assay_type": "functional"}, "[5]": {"target": "T3, Rac GTPase-activating protein 1 (Homo sapiens, UniProt Q9H0H5)", "T3 sequence (Q9H0H5 whole entry)": "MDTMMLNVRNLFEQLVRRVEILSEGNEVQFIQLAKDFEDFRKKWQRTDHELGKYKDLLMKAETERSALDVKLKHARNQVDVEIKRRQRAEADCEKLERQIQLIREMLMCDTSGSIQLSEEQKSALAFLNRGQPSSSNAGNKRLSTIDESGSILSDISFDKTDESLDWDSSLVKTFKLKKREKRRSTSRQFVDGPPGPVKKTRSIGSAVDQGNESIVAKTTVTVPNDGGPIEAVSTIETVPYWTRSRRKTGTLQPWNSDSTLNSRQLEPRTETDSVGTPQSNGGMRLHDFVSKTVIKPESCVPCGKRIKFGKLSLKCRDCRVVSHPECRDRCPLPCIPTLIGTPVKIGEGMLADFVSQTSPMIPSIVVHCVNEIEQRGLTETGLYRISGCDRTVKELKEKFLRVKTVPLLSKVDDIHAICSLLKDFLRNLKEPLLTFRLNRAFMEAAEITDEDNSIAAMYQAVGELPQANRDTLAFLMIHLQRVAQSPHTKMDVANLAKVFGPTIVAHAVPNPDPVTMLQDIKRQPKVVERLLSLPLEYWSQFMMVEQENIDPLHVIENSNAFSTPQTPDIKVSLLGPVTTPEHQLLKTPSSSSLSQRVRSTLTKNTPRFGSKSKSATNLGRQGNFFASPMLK", "assay": "blockers of MgcRacGAP-driven Rac1 GTP hydrolysis – biochemical, ADP Hunter fluorescence, primary and confirmatory, confirmation (AID 624330)", "assay_type": "functional"}, "Hexokinase": {"target": "Hexokinase (Trypanosoma brucei, UniProt Q38C41)", "sequence (Q38C41 whole entry)": "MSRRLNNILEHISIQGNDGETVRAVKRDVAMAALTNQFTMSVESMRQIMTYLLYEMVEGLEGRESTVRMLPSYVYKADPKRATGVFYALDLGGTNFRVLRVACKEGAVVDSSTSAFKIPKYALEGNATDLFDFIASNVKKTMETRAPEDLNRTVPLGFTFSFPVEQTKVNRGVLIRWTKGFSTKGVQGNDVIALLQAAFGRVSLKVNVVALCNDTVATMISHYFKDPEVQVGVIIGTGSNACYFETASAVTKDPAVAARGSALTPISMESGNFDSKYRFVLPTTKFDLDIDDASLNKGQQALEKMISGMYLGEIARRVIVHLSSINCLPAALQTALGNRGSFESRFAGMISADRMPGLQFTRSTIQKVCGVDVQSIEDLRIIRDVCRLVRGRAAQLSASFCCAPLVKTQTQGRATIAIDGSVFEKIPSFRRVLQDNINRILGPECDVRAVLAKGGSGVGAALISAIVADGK", "assay": "Confirmation assay for inhibitors of Trypanosoma brucei hexokinase 1-Analogue-first series. [Related pubchem assays (depositor defined):AID1430, AID1632, AID2516, AID2560, AID2579, AID2600, AID449725, AID492951]", "assay_type": "functional"}, "[6]": {"assay": "viability loss in HeLa cells – cytotoxicity control for MgcRacGAP inhibitor project, dose response (AID 624300)", "assay_type": "functional"}, "[7]": {"target": "T4, Tyrosine-protein phosphatase non-receptor type 7 (Homo sapiens, UniProt P35236)", "T4 sequence (P35236 whole entry)": "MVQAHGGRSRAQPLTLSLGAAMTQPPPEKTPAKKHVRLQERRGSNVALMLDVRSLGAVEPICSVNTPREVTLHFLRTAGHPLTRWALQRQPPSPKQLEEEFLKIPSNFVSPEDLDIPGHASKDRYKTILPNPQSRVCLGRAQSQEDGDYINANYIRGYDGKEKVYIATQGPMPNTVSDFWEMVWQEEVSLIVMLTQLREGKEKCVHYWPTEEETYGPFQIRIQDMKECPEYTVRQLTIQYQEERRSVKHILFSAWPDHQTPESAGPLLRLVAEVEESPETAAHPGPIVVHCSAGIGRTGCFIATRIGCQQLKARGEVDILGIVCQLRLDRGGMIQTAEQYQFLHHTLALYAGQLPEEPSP", "assay_type": "functional"}, "[8]": {"target": "T5, Tyrosine-protein phosphatase non-receptor type 22 (Homo sapiens, UniProt Q9Y2R2)", "T5 sequence (Q9Y2R2 whole entry)": "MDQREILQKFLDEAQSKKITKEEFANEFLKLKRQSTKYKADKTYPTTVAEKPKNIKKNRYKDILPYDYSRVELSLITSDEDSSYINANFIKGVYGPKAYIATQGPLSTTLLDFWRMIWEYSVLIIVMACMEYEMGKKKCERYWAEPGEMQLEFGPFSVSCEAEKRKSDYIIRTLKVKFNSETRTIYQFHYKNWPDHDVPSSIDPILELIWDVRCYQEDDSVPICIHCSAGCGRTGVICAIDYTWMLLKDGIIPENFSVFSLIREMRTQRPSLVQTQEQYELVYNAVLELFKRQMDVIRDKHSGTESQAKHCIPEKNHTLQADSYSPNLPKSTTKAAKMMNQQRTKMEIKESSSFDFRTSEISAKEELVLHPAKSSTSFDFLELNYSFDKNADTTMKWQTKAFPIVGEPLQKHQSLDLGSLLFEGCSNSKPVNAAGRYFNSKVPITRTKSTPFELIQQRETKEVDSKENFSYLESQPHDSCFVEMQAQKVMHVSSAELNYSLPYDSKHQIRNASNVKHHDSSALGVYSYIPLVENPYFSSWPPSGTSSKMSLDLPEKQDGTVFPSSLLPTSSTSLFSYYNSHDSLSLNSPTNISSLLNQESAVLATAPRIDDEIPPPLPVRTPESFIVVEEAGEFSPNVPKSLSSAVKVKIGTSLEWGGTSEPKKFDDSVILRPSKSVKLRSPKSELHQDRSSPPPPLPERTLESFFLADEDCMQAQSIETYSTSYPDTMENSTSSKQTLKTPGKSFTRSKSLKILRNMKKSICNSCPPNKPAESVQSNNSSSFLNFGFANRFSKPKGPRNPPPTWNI", "assay_type": "functional"}, "[9]": {"target": "T5, Tyrosine-protein phosphatase non-receptor type 22", "assay_type": "functional", "remark": "listed apart in the source"}, "Streptokinase A": {"target": "T6, Streptokinase A (Streptococcus pyogenes serotype M1, UniProt P10520)", "T6 sequence (P10520 whole entry)": "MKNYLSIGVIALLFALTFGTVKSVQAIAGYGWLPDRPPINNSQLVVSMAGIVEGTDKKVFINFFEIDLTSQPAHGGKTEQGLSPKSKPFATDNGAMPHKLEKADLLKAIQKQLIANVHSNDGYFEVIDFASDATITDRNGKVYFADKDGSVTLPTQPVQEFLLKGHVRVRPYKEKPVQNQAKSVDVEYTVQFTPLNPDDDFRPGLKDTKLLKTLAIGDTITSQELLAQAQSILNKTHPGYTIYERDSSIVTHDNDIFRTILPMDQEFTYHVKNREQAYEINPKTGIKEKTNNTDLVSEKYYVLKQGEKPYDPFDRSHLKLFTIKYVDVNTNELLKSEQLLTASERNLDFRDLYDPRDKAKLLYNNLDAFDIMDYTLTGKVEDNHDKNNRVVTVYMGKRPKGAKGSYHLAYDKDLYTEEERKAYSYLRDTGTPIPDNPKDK", "assay": "viability-normalized secreted streptokinase activity reduction – plasminogen activation absorbance, OD405, dose response (AID 1914)", "assay_type": "functional, Streptococcus pyogenes M1 GAS"}, "Coagulation factor XII": {"target": "Coagulation factor XII (Homo sapiens, UniProt P00748)", "sequence (P00748 20-372 limits assumed)": "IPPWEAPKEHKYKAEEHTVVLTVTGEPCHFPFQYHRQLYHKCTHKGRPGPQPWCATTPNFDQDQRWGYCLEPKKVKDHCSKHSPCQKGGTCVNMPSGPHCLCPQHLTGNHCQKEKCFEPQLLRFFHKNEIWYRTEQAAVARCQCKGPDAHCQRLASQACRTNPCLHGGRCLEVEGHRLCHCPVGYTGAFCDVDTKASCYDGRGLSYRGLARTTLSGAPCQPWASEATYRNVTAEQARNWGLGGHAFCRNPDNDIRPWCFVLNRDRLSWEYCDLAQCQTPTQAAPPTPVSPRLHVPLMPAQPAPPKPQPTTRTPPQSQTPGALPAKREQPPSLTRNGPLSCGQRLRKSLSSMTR", "sequence (P00748 373-615 limits assumed)": "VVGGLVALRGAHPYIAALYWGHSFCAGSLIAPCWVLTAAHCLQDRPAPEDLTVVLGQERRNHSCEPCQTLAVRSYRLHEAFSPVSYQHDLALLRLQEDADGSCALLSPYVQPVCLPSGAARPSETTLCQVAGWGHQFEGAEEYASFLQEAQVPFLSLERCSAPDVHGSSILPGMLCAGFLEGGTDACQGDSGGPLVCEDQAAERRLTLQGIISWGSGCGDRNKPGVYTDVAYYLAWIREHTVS", "assay_type": "functional"}, "Streptococcus": {"test_system": "Streptococcus", "assay": "GAS UMAA2166 growth inhibition – luminescence, BacTiterGlo, counter-screen for streptokinase expression inhibitor project, dose response (AID 1915)", "assay_type": "functional, organism-based"}, "[10]": {"test_system": "Streptococcus sp. 'group A'", "assay": "Streptococcus pyogenes SK(-)GAS viability under kanamycin – luminescence, BacTiterGlo, confirmation, counter-screen for streptokinase expression inhibitor project, dose response (AID 1900)", "assay_type": "functional, organism-based"}},
  "note": "Active and inactive are the calls of the source.",
  "data": [
    {"smiles": "Cc1n[nH]c2c1C(=O)CC(c1ccc(F)cc1)C2", "note": "(stereo not given)", "values": [
      {"measurement": "IC50", "setting": "[1]", "result": "> 100 µM (not active)"},
      {"measurement": "IC50", "setting": "[2]", "result": "14.4 µM (active)"},
      {"measurement": "IC50", "setting": "[3]", "result": "> 100 µM (inactive)"}
    ]},
    {"smiles": "O=c1c2ccccc2sn1-c1ccc(Cl)cc1", "values": [
      {"measurement": "IC50", "setting": "Phosphomannomutase 2", "result": "35.6 µM (active)"},
      {"measurement": "IC50", "setting": "[4]", "result": "10.5 µM (active)"},
      {"measurement": "IC50", "setting": "[5]", "result": "34.7 µM (active)"},
      {"measurement": "IC50", "setting": "Hexokinase", "result": "1.1 µM (active)"},
      {"measurement": "CC50", "setting": "[6]", "result": "100 µM (active)"}
    ]},
    {"smiles": "CCNS(=O)(=O)c1cc(S(C)(=O)=O)ccc1Cl", "values": [
      {"measurement": "IC50", "setting": "[7]", "result": "> 79.4 µM (inactive)"},
      {"measurement": "IC50", "setting": "[8]", "result": "> 79.4 µM (inactive)"},
      {"measurement": "IC50", "setting": "[9]", "result": "> 79.4 µM (inactive)"}
    ]},
    {"smiles": "O=C(Nc1ncc(Cc2ccccc2)s1)c1cccs1", "values": [
      {"measurement": "EC50", "setting": "Streptokinase A", "result": "> 150 µM (not active)"},
      {"measurement": "IC50", "setting": "Coagulation factor XII", "result": "> 50 µM (inactive)"},
      {"measurement": "EC50", "setting": "Streptococcus", "result": "> 150 µM (not active)"},
      {"measurement": "EC50", "setting": "[10]", "result": "15.6 µM (active)"}
    ]}
  ]
}
